Measured values reported in patent publication US20050136006A1, “Quantitative assay of the angiogenic and antiangiogenic activity of a test molecule” (Government of the U.S.A.,represented by the Secretary, …, priority 2002, published 2005).
Several values for one entry are separate records, joined by “and”; a condition that tells them apart may be missing. Identical values can stand only once.

Tests used:
[1] = test system: chorioallantoic membrane tissue of an embryonated chicken egg; experiment: Modified CAM assay, fluorescent vascular density (FVD) by laser confocal microscopy after FITC-Dextran injection; type: in vivo; parameters: FVD Group Mean / FVD: scale not given here; details: for FVD: individual eggs
Procedure: Eighteen 10-day-old embryonated chicken eggs were obtained. A window was made in the shell of each egg. The chorioallantoic membranes were dropped to allow placement of a filter paper disc saturated with either basic fibroblast growth factor (bFGF) (1 μg/ml), as an angiogenic stimulator, or with a control solution (Clonetics EBM-2 media, Bio-Whittaker, Walersville, Md.). Twenty-four hours were allowed to elapse and a vessel was cannulated in each egg. Embryos that had received a filter disc saturated with bFGF then received a systemic injection of either Fumagillin (5 μg/egg, Calbiochem, San Diego, Calif.) in 0.1% dimethyl sulfoxide (DMSO) (Group A, n=3), or an injection of 0.1% DMSO carrier alone (Group B, n=5). Fumagillin is an organic compound with established antiangiogenic effects (see, e.g., Ingber et al., Nature, 348:555-557 (1990)). Embryos that had received a filter disc saturated with the control molecule received 0. 1% DMSO carrier injected systemically (Group C, n=10).
Forty-eight hours were allowed to elapse, and all eggs then received a systemic injection of fluorescein isothiocyanate (FITC)-Dextran (1 mg/ml), which was allowed to circulate for 30 minutes. Filter discs and associated CAM tissue (i.e., the region of interest) were excised from the egg and preserved in 10% formalin. The filter disc and region of interest were then laid out on a glass microscope slide and viewed using a laser confocal microscope (LSM 510 Laser Scanning Microscope, Carl Zeiss, Inc., Thronwood, N.Y.). The filter disc and region of interest were stimulated with an argon laser emitting at a wavelength of 488 nm. The resultant excitation was read using fluorescence filters at wavelengths of 505 nm and greater. The image was captured using LSM 5 Pascal software (Carl Zeiss, Inc.), through a microscope objective of 1.25×. The capture image data was formatted as 1024 pixels wide by 1024 pixels long, resulting in an overall image of 1,048,576 pixels, each with a brightness measured on a scale from 0 to 255. Multiple cross-sectional images were taken along a three-dimensional z-axis at 200 micron intervals through each filter disc and region of interest from each egg. Each filter disc and region of interest was thereby determined to have a fluorescent vascular density reflective of the density of vasculature of the CAM tissue associated with the filter disc. One filter disc in Group C was eliminated from analysis owing to gross extravasation of fluorescein, rendering it unreadable (represented by “-” in Table 1).

[2] = test system: endothelial cell proliferation in the CAM; experiment: CAM-XTT cell proliferation assay, spectrophotometrical absorbance; type: in vivo, chicken; details: FGF 2.0 μg/mL disc; systemic 100 μM Fumagillin or 3 mg/mL LM609; relative to FGF + 0.1% DMSO carrier
Procedure: Ten 10-day old eggs were divided into four groups and prepared as in Example 1. The eggs received (A) filter disks saturated with a vehicle solution (0.1% bovine serum albumin (BSA)/phosphate-buffered saline (PBS)) and systemic injection of a carrier solution (0.1% DMSO), (B) filter disks saturated with a stimulator solution (2.0 μg/mL FGF) and systemic injection of carrier solution (0.1% DMSO), (C) filter disks saturated with a stimulator solution (2.0 μg/mL FGF) and systemic injection of an inhibitor (100 μM Fumagillin), or (D) filter disks saturated with a stimulator solution (2.0 μg/mL FGF) and systemic injection of an inhibitor (3 mg/mL LM609). […]
XTT is a tetrazolium salt, which is reduced within the mitochondria of metabolically active cells to form a colored formazan dye. The amount of formazan dye produced is quantitatively measured by spectrophotometrical absorbance (e.g., by an ELISA plate reader) at 450-500 nm. […]
5 mL of XTT labeling reagent and 0.1 mL electron coupling reagent were mixed together and 30 μL of the mixture was applied onto the CAM disk via pipette. […] At Day 13, the disks were harvested for light photomicroscopy and the mean spectrophotometrical absorbance at 450 nm was measured (reference wavelength 620 nm (Titertek Multiskan Ascent Plate Reader)).

[3] = test system: filter discs and associated CAM tissue; experiment: CAM assay scored from light microscopic photographs by blinded observers; type: in vivo, chicken; parameters: scale not given here; details: for Score: individual discs
Procedure: However, instead of using laser confocal microscopy to determine an FVD value for a test region of interest, the filter discs and associated CAM tissue were photographed under light microscopy. The light microscopic photographs were evaluated independently by three blinded observers, all experts in the study of angiogenesis. […] If the blinded observer felt that a disc had too much hemorrhage or artifact to make an accurate assessment of angiogenesis, it was eliminated from that observer's assessment (represented by a “-” in Tables 2-4).

[4] = Table 2, one blinded observer, Group A: bFGF disc + Fumagillin 5 μg/egg
[5] = Table 3, one blinded observer, Group A: bFGF disc + Fumagillin 5 μg/egg
[6] = Table 4, one blinded observer, Group A: bFGF disc + Fumagillin 5 μg/egg
[7] = Table 2, one blinded observer, Group B: bFGF disc + 0.1% DMSO carrier
[8] = Table 3, one blinded observer, Group B: bFGF disc + 0.1% DMSO carrier
[9] = Table 4, one blinded observer, Group B: bFGF disc + 0.1% DMSO carrier

Molecule | FVD ([1]; Treatment Group A: bFGF (1 μg/ml) filter disc, systemic Fumagillin 5 μg/egg in 0.1% DMSO, 48 h) | FVD Group Mean ([1]; Treatment Group A: bFGF (1 μg/ml) filter disc, systemic Fumagillin 5 μg/egg in 0.1% DMSO, n=3) | effect on fluorescent vascular density of bFGF-stimulated specimens ([1]; systemic injection, on average, relative to bFGF stimulation + control molecule (Group B)) | effect on spectrophotometrical absorbance (450 nm) of FGF-stimulated specimens [2] | Score Group Mean [3, 4] | Score [3, 4] | Score Group Mean [3, 5] | Score [3, 5] | Score Group Mean [3, 6] | Score [3, 6] | FVD ([1]; Treatment Group B: bFGF (1 μg/ml) filter disc, systemic 0.1% DMSO carrier alone) | FVD Group Mean ([1]; Treatment Group B: bFGF (1 μg/ml) filter disc, systemic 0.1% DMSO carrier alone, n=5) | Score Group Mean [3, 7] | Score [3, 7] | Score Group Mean [3, 8] | Score [3, 8] | Score Group Mean [3, 9] | Score [3, 9]
CO[C@@H]1[C@H](OC(=O)/C=C/C=C/C=C/C=C/C(=O)O)CC[C@]2(CO2)[C@H]1[C@@]1(C)O[C@@H]1CC=C(C)C [Fumagillin] | 0.0673 and 0.0533 and 1.5029 | 0.5412 | reduce the fluorescent vascular density | reduced the spectrophotometrical absorbance | 2 | 2 | 2.7 | 2 and 3 (2×) | 2 | 3 and 2 and 1 | – | – | – | – | – | – | – | –
basic fibroblast growth factor [bFGF] | – | – | – | – | – | – | – | – | – | – | 2.5401 and 3.7715 and 1.9767 and 0.6873 and 2.6344 | 2.322 | 1.8 | 2 (2×) and 3 and 1 (2×) | 2.4 | 2 and 3 (3×) and 1 | 2.2 | 2 (2×) and 3 (2×) and 1
